Laboratory results from PubChem BioAssay AID330 (DTP/NCI, 2004).
Several values for one entry are separate records, joined by “and”; a condition that tells them apart may be missing. Identical values can stand only once. Inconclusive results and toxic doses are left out.

Tested on: P388 leukemia ip, CD2F1 mice, survival T/C
Test: NCI In Vivo Anticancer Drug Screen. Data for tumor model P388 Leukemia (intraperitoneal) in CD2F1 (CDF1) mice
Conditions: endpoint: median survival time, higher = longer survival
How it was run: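 Mice carrying the transplanted tumor received test compound or vehicle. Survival was recorded in each group, and the value is the treated-group measurement divided by that of the vehicle-treated control group.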

[1] = dose: 50.0 mg/kg/injection, schedule: Q01DX009 (ip), vehicle: Klucel (hydroxypropylcellulose) (HPC)
[2] = dose: 100.0 mg/kg/injection, schedule: Q01DX009 (ip), vehicle: Klucel (hydroxypropylcellulose) (HPC)
[3] = dose: 200.0 mg/kg/injection, schedule: Q01DX009 (ip), vehicle: Klucel (hydroxypropylcellulose) (HPC)
[4] = dose: 25.0 mg/kg/injection, schedule: Q01DX005 (ip), vehicle: saline with Tween-80
[5] = dose: 50.0 mg/kg/injection, schedule: Q01DX005 (ip), vehicle: saline with Tween-80
[6] = dose: 120.0 mg/kg/injection, schedule: Q01DX005 (ip), vehicle: saline with Tween-80

## Cc1ccc(C#N)s1
dose: 3.12 mg/kg/injection, schedule: Q01DX009 (ip), vehicle: saline with Tween-80
  T/C: 104 % of control
dose: 6.25 mg/kg/injection, schedule: Q01DX009 (ip), vehicle: saline with Tween-80
  T/C: 103 % of control
dose: 12.5 mg/kg/injection, schedule: Q01DX009 (ip), vehicle: saline with Tween-80
  T/C: 102 % of control
dose: 25.0 mg/kg/injection, schedule: Q01DX009 (ip), vehicle: saline with Tween-80
  T/C: 95 % of control

## c1ccc(N=NC(c2ccccc2)(c2ccccc2)c2ccccc2)cc1
dose: 6.25 mg/kg/injection, schedule: Q01DX009 (ip), vehicle: Klucel (hydroxypropylcellulose) (HPC)
  T/C: 110 % of control
dose: 12.5 mg/kg/injection, schedule: Q01DX009 (ip), vehicle: Klucel (hydroxypropylcellulose) (HPC)
  T/C: 110 % of control
dose: 25.0 mg/kg/injection, schedule: Q01DX009 (ip), vehicle: Klucel (hydroxypropylcellulose) (HPC)
  T/C: 99 % of control
[1]
  T/C: 107 % of control

## O=C1C=C(N2CC2)C(=O)C=C1N1CC1
dose: 0.12 mg/kg/injection, schedule: Q01DX009 (ip), vehicle: saline
  T/C: 157 % of control
dose: 0.25 mg/kg/injection, schedule: Q01DX009 (ip), vehicle: saline
  T/C: 150 % of control and 170 % of control and 196 % of control
dose: 0.5 mg/kg/injection, schedule: Q01DX009 (ip), vehicle: saline
  T/C: 153 % of control and 185 % of control and 206 % of control
dose: 1.0 mg/kg/injection, schedule: Q01DX009 (ip), vehicle: saline
  T/C: 95 % of control

## O=S1(=O)CC(c2ccccc2)=NN=C(c2ccccc2)C1
[1]
  T/C: 93 % of control
[2]
  T/C: 93 % of control
[3]
  T/C: 88 % of control

## Fc1ccc(Nc2nnc(-c3ccc(Cl)cc3Cl)o2)cc1
dose: 12.5 mg/kg/injection, schedule: Q01DX005 (ip), vehicle: saline with Tween-80
  T/C: 97 % of control
[4]
  T/C: 99 % of control
[5]
  T/C: 93 % of control and 97 % of control
dose: 200.0 mg/kg/injection, schedule: Q01DX005 (ip), vehicle: saline with Tween-80
  T/C: 96 % of control

## Cc1c(-c2ccccc2)noc1-c1ccccc1
dose: 100.0 mg/kg/injection, schedule: Q04DX003 (ip), vehicle: saline
  T/C: 106 % of control
dose: 200.0 mg/kg/injection, schedule: Q04DX003 (ip), vehicle: saline
  T/C: 102 % of control
dose: 400.0 mg/kg/injection, schedule: Q04DX003 (ip), vehicle: saline
  T/C: 101 % of control

## CC1(C)CC(O)C2(CO)C(C1)C1=CCC3C4(C)CCC(O)C(C)(C)C4CCC3(C)C1(C)C(O)C2O (configuration not stated)
dose: 5.25 mg/kg/injection, schedule: Q01DX005 (ip), vehicle: Klucel (hydroxypropylcellulose) (HPC)
  T/C: 100 % of control
dose: 10.5 mg/kg/injection, schedule: Q01DX005 (ip), vehicle: Klucel (hydroxypropylcellulose) (HPC)
  T/C: 103 % of control
dose: 21.0 mg/kg/injection, schedule: Q01DX005 (ip), vehicle: Klucel (hydroxypropylcellulose) (HPC)
  T/C: 94 % of control
dose: 42.0 mg/kg/injection, schedule: Q01DX005 (ip), vehicle: Klucel (hydroxypropylcellulose) (HPC)
  T/C: 99 % of control

## CCc1nc(N)nc(N)c1-c1ccc(OC)c([N+](=O)[O-])c1
[6]
  T/C: 151 % of control and 189 % of control
dose: 480.0 mg/kg/injection, schedule: Q01DX005 (ip), vehicle: saline with Tween-80
  T/C: 90 % of control

## C[N+]1(CCC(/C=C/c2ccc([N+](=O)[O-])cc2)=N\O)CCOCC1
dose: 7.5 mg/kg/injection, schedule: Q01DX005 (ip), vehicle: saline with Tween-80
  T/C: 107 % of control
dose: 15.0 mg/kg/injection, schedule: Q01DX005 (ip), vehicle: saline with Tween-80
  T/C: 93 % of control
dose: 30.0 mg/kg/injection, schedule: Q01DX005 (ip), vehicle: saline with Tween-80
  T/C: 100 % of control

## C[N+](C)(Cn1nc(Cl)c2cc([N+](=O)[O-])ccc21)Cn1nc(Cl)c2cc([N+](=O)[O-])ccc21
dose: 50.0 mg/kg/injection, schedule: Q04DX003 (ip), vehicle: saline with Tween-80
  T/C: 93 % of control
dose: 200.0 mg/kg/injection, schedule: Q04DX003 (ip), vehicle: saline with Tween-80
  T/C: 88 % of control

## CNc1onc(C)c1C
dose: 50.0 mg/kg/injection, schedule: Q01DX009 (ip), vehicle: saline with Tween-80
  T/C: 103 % of control
dose: 100.0 mg/kg/injection, schedule: Q01DX009 (ip), vehicle: saline with Tween-80
  T/C: 105 % of control
dose: 200.0 mg/kg/injection, schedule: Q01DX009 (ip), vehicle: saline with Tween-80
  T/C: 100 % of control

## Cc1cc(=O)c2ccc(Cl)c(C)c2[nH]1
dose: 60.0 mg/kg/injection, schedule: Q01DX005 (ip), vehicle: saline with Tween-80
  T/C: 110 % of control
[6]
  T/C: 93 % of control
dose: 240.0 mg/kg/injection, schedule: Q01DX005 (ip), vehicle: saline with Tween-80
  T/C: 103 % of control

## c1cc(OCC2CO2)cc(OCC2CO2)c1 (configuration not stated)
dose: 3.12 mg/kg/injection, schedule: Q01DX009 (ip), vehicle: DMSO
  T/C: 88 % of control
dose: 6.25 mg/kg/injection, schedule: Q01DX009 (ip), vehicle: DMSO
  T/C: 88 % of control
dose: 12.5 mg/kg/injection, schedule: Q01DX009 (ip), vehicle: DMSO
  T/C: 100 % of control
dose: 25.0 mg/kg/injection, schedule: Q01DX009 (ip), vehicle: DMSO
  T/C: 104 % of control and 96 % of control
dose: 50.0 mg/kg/injection, schedule: Q01DX009 (ip), vehicle: DMSO
  T/C: 104 % of control
dose: 100.0 mg/kg/injection, schedule: Q01DX009 (ip), vehicle: DMSO
  T/C: 95 % of control

## O=C1c2ccccc2C2NCCCN12 (configuration not stated)
dose: 50.0 mg/kg/injection, schedule: Q01DX009 (ip), vehicle: suspension in saline
  T/C: 93 % of control
dose: 100.0 mg/kg/injection, schedule: Q01DX009 (ip), vehicle: suspension in saline
  T/C: 102 % of control
dose: 200.0 mg/kg/injection, schedule: Q01DX009 (ip), vehicle: suspension in saline
  T/C: 107 % of control
dose: 400.0 mg/kg/injection, schedule: Q01DX009 (ip), vehicle: suspension in saline
  T/C: 111 % of control

## Cc1ccc(S(=O)(=O)N/N=C/c2c(Cl)n(C(=O)c3ccccc3C)c3ccccc23)cc1
dose: 100.0 mg/kg/injection, schedule: Q01DX001 (ip), vehicle: Klucel (hydroxypropylcellulose) (HPC)
  T/C: 97 % of control
dose: 200.0 mg/kg/injection, schedule: Q01DX001 (ip), vehicle: Klucel (hydroxypropylcellulose) (HPC)
  T/C: 91 % of control
dose: 400.0 mg/kg/injection, schedule: Q01DX001 (ip), vehicle: Klucel (hydroxypropylcellulose) (HPC)
  T/C: 89 % of control

## CCOC(=O)CSc1nnc(-c2cc(OC)c(OCC)c(OC)c2)o1
dose: 62.5 mg/kg/injection, schedule: Q01DX001 (ip), vehicle: Klucel (hydroxypropylcellulose) (HPC)
  T/C: 102 % of control
dose: 125.0 mg/kg/injection, schedule: Q01DX001 (ip), vehicle: Klucel (hydroxypropylcellulose) (HPC)
  T/C: 102 % of control
dose: 250.0 mg/kg/injection, schedule: Q01DX001 (ip), vehicle: Klucel (hydroxypropylcellulose) (HPC)
  T/C: 100 % of control

## CN1C(c2ccccc2)=NN=C(C(F)(F)F)N1C
dose: 100.0 mg/kg/injection, schedule: Q01DX001 (ip), vehicle: distilled water + Tween-80 + alcohol
  T/C: 98 % of control
dose: 200.0 mg/kg/injection, schedule: Q01DX001 (ip), vehicle: distilled water + Tween-80 + alcohol
  T/C: 101 % of control
dose: 400.0 mg/kg/injection, schedule: Q01DX001 (ip), vehicle: distilled water + Tween-80 + alcohol
  T/C: 106 % of control

## NC(=S)c1cccc(/C=N/Nc2ccc([N+](=O)[O-])cc2[N+](=O)[O-])c1
dose: 100.0 mg/kg/injection, schedule: Q01DX001 (ip), vehicle: saline
  T/C: 99 % of control
dose: 200.0 mg/kg/injection, schedule: Q01DX001 (ip), vehicle: saline
  T/C: 105 % of control
dose: 400.0 mg/kg/injection, schedule: Q01DX001 (ip), vehicle: saline
  T/C: 96 % of control

## CC(C)C(=O)CCC(C)C1CCC2(C)C3CC=C4C(CCC(O)C4(C)C)C3(C)C(=O)CC12C (configuration not stated)
dose: 100.0 mg/kg/injection, schedule: Q04DX002 (ip), vehicle: saline
  T/C: 100 % of control
dose: 200.0 mg/kg/injection, schedule: Q04DX002 (ip), vehicle: saline
  T/C: 98 % of control
dose: 400.0 mg/kg/injection, schedule: Q04DX002 (ip), vehicle: saline
  T/C: 99 % of control

## Cc1cc(C)n(C(N)=NC(=O)c2ccc([N+](=O)[O-])cc2)n1
[1]
  T/C: 99 % of control
[2]
  T/C: 101 % of control
[3]
  T/C: 106 % of control

## CN(C)C(=O)n1cnc([N+](=O)[O-])c1
dose: 100.0 mg/kg/injection, schedule: Q01DX001 (ip), vehicle: saline with Tween-80
  T/C: 97 % of control
dose: 200.0 mg/kg/injection, schedule: Q01DX001 (ip), vehicle: saline with Tween-80
  T/C: 112 % of control

## CC(C)NC(=O)OCc1c(COC(=O)NC(C)C)c(Sc2ccccc2)n2c1CCC2
[4]
  T/C: 154 % of control
[5]
  T/C: 163 % of control
dose: 100.0 mg/kg/injection, schedule: Q01DX005 (ip), vehicle: saline with Tween-80
  T/C: 110 % of control
